Experiment [1] addresses Carbonic anhydrase 14 (Homo sapiens) (UniProt Q9ULX7).
Description: Inhibition of human recombinant carbonic anhydrase 14 by stopped flow CO2 hydration method
For experiment [2], the target named is Carbonic anhydrase 13 (Mus musculus) (UniProt Q9D6N1). The experiment can be described thus: Inhibition of mouse recombinant carbonic anhydrase 13 by stopped flow CO2 hydration method.
For experiment [3], the target named is Carbonic anhydrase 12 (Homo sapiens) (UniProt O43570).
Description: Inhibition of human recombinant carbonic anhydrase 12 catalytic domain by stopped flow CO2 hydration method
In experiment [4] the target is Carbonic anhydrase 7 (Homo sapiens) (UniProt P43166).
For experiment [5], the target named is Carbonic anhydrase 1 (Homo sapiens) (UniProt P00915).
Chain of Carbonic anhydrase 1 (Homo sapiens) (P00915 2-261 limits assumed): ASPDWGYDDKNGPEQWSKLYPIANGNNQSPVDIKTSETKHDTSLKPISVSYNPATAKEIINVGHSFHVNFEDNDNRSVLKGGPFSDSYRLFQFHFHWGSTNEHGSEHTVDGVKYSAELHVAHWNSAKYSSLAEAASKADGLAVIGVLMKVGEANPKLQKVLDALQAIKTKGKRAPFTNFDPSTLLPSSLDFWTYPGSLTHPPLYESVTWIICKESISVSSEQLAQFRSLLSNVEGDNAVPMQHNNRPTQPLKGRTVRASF
Experiment [6] addresses Carbonic anhydrase 9 (Homo sapiens) (UniProt Q16790).
Description: Inhibition of human recombinant carbonic anhydrase 9 catalytic domain by stopped flow CO2 hydration method
In experiment [7] the target is T1, Carbonic anhydrase 2 (Homo sapiens, UniProt P00918).
The target of experiment [8] is Carbonic anhydrase 5A, mitochondrial (Homo sapiens) (UniProt P35218).
Chain of Carbonic anhydrase 5A, mitochondrial (Homo sapiens) (P35218 whole entry): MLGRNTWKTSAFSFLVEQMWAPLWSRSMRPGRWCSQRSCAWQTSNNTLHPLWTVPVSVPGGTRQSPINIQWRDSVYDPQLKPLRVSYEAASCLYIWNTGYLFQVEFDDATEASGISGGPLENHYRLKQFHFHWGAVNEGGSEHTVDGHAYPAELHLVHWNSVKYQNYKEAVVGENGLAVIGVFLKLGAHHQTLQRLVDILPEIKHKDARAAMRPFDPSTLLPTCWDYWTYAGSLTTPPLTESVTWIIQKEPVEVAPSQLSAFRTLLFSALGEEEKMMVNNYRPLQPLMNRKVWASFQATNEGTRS
Description: Inhibition of human recombinant carbonic anhydrase 5A by stopped flow CO2 hydration method
For experiment [9], the target named is Carbonic anhydrase 6 (Homo sapiens) (UniProt P23280).
Chain of Carbonic anhydrase 6 (Homo sapiens) (P23280 whole entry): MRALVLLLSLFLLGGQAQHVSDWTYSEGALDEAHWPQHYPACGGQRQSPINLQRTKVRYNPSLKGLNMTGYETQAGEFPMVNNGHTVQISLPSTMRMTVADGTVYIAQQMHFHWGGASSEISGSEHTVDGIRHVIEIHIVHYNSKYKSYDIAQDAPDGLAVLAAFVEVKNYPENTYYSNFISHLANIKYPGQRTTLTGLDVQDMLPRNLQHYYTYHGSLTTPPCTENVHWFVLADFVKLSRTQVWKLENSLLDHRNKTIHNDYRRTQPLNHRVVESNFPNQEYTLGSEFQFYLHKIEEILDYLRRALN
Description: Inhibition of human recombinant carbonic anhydrase 6 by stopped flow CO2 hydration method
Experiment [10] has as its target T2, Carbonic anhydrase 15 (Mus musculus) (UniProt Q99N23).
T2 sequence (whole entry): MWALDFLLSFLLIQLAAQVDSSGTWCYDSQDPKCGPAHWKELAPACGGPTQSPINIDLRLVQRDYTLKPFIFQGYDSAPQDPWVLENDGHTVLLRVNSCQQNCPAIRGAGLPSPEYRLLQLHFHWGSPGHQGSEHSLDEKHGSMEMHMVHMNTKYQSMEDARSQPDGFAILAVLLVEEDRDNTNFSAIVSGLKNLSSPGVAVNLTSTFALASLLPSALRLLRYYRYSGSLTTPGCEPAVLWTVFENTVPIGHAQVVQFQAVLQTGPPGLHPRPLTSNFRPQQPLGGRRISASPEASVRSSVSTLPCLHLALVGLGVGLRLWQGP
The experiment can be described thus: Inhibition of mouse recombinant carbonic anhydrase 15 by stopped flow CO2 hydration method.

Experiment [11] has as its target Carbonic anhydrase 5B, mitochondrial (Homo sapiens) (UniProt Q9Y2D0).
Description: Inhibition of human recombinant carbonic anhydrase 5B by stopped flow CO2 hydration method
Experiment [12] has as its target Carbonic anhydrase 3 (Homo sapiens) (UniProt P07451).
Description: Inhibition of human recombinant carbonic anhydrase 3 by stopped flow CO2 hydration method
In experiment [13] the target is Carbonic anhydrase 4 (Homo sapiens) (UniProt P22748).
Chain of Carbonic anhydrase 4 (Homo sapiens) (P22748 whole entry): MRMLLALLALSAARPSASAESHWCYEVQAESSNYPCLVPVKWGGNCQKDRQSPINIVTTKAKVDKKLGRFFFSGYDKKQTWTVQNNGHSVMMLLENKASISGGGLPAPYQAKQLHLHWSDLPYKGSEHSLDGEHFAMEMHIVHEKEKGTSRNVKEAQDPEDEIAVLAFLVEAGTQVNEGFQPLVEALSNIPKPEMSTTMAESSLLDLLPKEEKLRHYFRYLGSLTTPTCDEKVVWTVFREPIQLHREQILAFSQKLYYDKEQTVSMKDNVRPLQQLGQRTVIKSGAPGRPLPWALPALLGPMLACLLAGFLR
Description: Inhibition of human recombinant carbonic anhydrase 4 by stopped flow CO2 hydration method
Experiment [14] deals with T1, Carbonic anhydrase 2. The experiment can be described thus: Inhibition of human recombinant carbonic anhydrase 2 by oxygen-18 isotope exchange assay.
For experiment [15], the target named is T1, Carbonic anhydrase 2. The experiment can be described thus: Inhibition of human recombinant carbonic anhydrase 2 assessed as activity of carbonic anhydrase 2 esterase activity against 4-nitrophenyl acetate.

SMILES strings stand for the structures.

Chain of Carbonic anhydrase 3 (Homo sapiens) (P07451 whole entry): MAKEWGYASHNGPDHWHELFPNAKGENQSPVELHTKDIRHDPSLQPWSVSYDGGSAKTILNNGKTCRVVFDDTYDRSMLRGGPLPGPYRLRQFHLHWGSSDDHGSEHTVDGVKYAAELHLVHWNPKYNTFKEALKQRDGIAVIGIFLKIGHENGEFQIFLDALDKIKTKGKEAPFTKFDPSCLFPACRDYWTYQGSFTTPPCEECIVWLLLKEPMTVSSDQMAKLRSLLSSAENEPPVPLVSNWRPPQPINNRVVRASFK
Chain of Carbonic anhydrase 12 (Homo sapiens) (O43570 whole entry): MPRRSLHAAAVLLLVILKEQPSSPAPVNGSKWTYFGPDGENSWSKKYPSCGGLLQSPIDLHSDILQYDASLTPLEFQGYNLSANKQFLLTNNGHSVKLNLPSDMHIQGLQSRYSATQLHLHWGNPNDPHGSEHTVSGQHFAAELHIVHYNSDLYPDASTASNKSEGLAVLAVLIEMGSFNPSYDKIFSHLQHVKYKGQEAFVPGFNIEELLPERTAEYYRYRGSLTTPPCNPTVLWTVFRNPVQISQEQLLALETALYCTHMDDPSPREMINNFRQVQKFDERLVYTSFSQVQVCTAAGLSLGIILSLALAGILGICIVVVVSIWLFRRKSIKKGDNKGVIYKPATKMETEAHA
Chain of Carbonic anhydrase 7 (Homo sapiens) (P43166 whole entry): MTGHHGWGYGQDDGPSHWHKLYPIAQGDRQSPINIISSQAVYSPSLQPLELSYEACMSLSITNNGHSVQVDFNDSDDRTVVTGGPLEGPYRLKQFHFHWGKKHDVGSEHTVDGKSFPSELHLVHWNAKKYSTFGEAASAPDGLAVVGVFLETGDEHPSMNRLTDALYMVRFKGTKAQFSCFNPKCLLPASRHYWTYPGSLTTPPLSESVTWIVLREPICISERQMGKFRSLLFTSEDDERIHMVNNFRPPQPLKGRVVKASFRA
Chain of Carbonic anhydrase 5B, mitochondrial (Homo sapiens) (Q9Y2D0 whole entry): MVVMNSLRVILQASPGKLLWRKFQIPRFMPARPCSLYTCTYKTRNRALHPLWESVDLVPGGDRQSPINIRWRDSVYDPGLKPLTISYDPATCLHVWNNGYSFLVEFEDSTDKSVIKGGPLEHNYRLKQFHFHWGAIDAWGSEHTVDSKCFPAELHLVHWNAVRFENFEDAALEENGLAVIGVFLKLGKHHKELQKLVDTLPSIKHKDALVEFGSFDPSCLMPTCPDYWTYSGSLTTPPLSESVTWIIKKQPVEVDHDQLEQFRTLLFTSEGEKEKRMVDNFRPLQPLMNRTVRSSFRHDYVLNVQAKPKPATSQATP
Chain of Carbonic anhydrase 14 (Homo sapiens) (Q9ULX7 whole entry): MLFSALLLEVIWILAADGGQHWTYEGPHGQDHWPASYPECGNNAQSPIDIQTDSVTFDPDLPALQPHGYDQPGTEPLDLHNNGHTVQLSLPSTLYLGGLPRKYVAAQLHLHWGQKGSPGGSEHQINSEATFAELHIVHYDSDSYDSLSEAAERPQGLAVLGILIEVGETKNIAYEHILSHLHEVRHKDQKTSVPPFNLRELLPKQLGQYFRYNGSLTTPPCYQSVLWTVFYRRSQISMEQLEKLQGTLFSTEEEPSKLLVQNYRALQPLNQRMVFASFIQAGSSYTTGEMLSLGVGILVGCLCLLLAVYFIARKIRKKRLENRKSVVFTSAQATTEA
Chain of Carbonic anhydrase 13 (Mus musculus) (Q9D6N1 whole entry, looked up): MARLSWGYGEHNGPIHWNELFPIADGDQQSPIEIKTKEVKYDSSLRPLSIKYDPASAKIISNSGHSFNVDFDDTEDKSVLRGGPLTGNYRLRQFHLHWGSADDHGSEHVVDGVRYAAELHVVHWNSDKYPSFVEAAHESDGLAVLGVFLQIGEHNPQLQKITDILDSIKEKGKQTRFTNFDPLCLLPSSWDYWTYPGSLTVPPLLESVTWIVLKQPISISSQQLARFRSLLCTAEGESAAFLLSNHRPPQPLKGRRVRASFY

Consider `NS(=O)(=O)c1cc(Cl)c(O)c(Cl)c1`, for which the Kinact in [1] is 8.12 µM; in experiment [2] it was 6.53 µM; in [3], 0.076 µM; in experiment [4], 0.072 µM; in experiment [5] it was 7.5 µM; in experiment [6] it was 0.081 µM. Further, the Kinact in experiment [7] came to 0.058 µM; in experiment [9] it was 6.17 µM; in experiment [11], 0.61 µM; in experiment [12] it was 78.6 µM; in experiment [13], 0.072 µM. In addition, the results for the Ki in experiment [8] and in experiment [10] were 620 nM and 780 nM, respectively.

For the molecule `O=c1oc2cc(O)ccc2s1` [TIOXOLONE], the Kinact in experiment [1] stood at 8.59 µM; in experiment [2], 8.23 µM; in [3] it was 7.79 µM; in [4], 5.73 µM; in experiment [5], 0.091 µM; in experiment [6], 6.67 µM. In addition, the Kinact came to 6.82 µM in [7]; 4.93 µM in experiment [9]; 9.04 µM in experiment [11]; 314 µM in experiment [14]; 6.56 µM in experiment [12]; 8.41 µM in experiment [13]. Moreover, the Ki is 7060 nM in experiment [8] and 7870 nM in experiment [10]. Also, in [15], the IC50 was found to be 1770 nM.

What is called Ki is a measure of affinity in units of concentration, obtained from inhibition or displacement. Usually IC50 stands for the concentration that inhibits the measured activity by half.

Source of the values: ChEMBL document CHEMBL1155067, “Carbonic anhydrase inhibitors: thioxolone versus sulfonamides for obtaining isozyme-selective inhibitors?” (Bioorg Med Chem Lett, 2008).
